Data as given in patent publication US20110171300A1, “DELTA 9 TETRAHYDROCANNABINOL DERIVATIVES” ([…] LIMITED, priority 2007, published 2011).

Tests used:
[1] = Stability to light and air at ambient temperature; format: physicochemical
[2] = air; cited from earlier work

SMILES | Stability [1] | Stability at room temperature [2]
CCCCCc1cc2c(c(OS(=O)(=O)c3cccs3)c1)[C@@H]1C=C(C)CC[C@H]1C(C)(C)O2 [Example 2, Δ9-THC 2-thiophene sulfonate] | Stable to light and air at ambient temperature | 
CCCCCc1cc2c(c(OS(=O)(=O)CCC)c1)[C@@H]1C=C(C)CC[C@H]1C(C)(C)O2 [Example 3, Δ9-THC n-propyl sulfonate] | Stable to light and air at ambient temperature | 
CCCCCc1cc2c(c(OS(=O)(=O)CCCCl)c1)[C@@H]1C=C(C)CC[C@H]1C(C)(C)O2 [Example 4, Δ9-THC 3-chloropropyl sulfonate] | Stable to light and air at ambient temperature | 
CCCCCc1cc(O)c2c(c1)OC(C)(C)[C@@H]1CCC(C)=C[C@@H]21 [Δ9-THC, Δ9-tetrahydrocannabinol] |  | relatively unstable
CCCCCc1cc2c(c(OS(=O)(=O)C[C@]34CCC(CC3=O)C4(C)C)c1)[C@@H]1C=C(C)CC[C@H]1C(C)(C)O2 [Example 1, Δ9-THC (1S)-(+)-Camphorsulfonate] | Stable to light and air at ambient temperature | 
